Experimental data reported in PubChem BioAssay (NCI).
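Five concentrations, 48 hours, 96-well plates. GI50 = concentration required for 50% inhibition of growth. The concentration for full growth arrest is given as TGI.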

Key:
Assay in all cases: NCI tumour cell line growth inhibition, 48 h
[1] = test system: 786-0 renal
[2] = test system: A498 renal
[3] = test system: A549 NSCLC
[4] = test system: ACHN renal
[5] = test system: BT-549 breast
[6] = test system: CAKI-1 renal
[7] = test system: CCRF-CEM leukemia
[8] = test system: COLO 205 colon
[9] = test system: DU-145 prostate
[10] = test system: HCC-2998 colon
[11] = test system: HCT-116 colon
[12] = test system: HCT-15 colon
[13] = test system: HL-60(TB) leukemia
[14] = test system: HOP-62 NSCLC
[15] = test system: HOP-92 NSCLC
[16] = test system: HS 578T breast
[17] = test system: HT29 colon
[18] = test system: IGROV1 ovarian
[19] = test system: K-562 leukemia
[20] = test system: KM12 colon
[21] = test system: LOX IMVI melanoma
[22] = test system: M14 melanoma
[23] = test system: MALME-3M melanoma
[24] = test system: MCF7 breast
[25] = test system: MDA-MB-231 breast
[26] = test system: MDA-MB-435
[27] = test system: MOLT-4 leukemia
[28] = test system: NCI-H226 lung
[29] = test system: NCI-H23 lung
[30] = test system: NCI-H460 lung
[31] = test system: NCI-H522 lung
[32] = test system: NCI/ADR-RES ovarian
[33] = test system: OVCAR-3 ovarian
[34] = test system: OVCAR-4 ovarian
[35] = test system: OVCAR-5 ovarian
[36] = test system: OVCAR-8 ovarian
[37] = test system: PC-3 prostate
[38] = test system: RPMI-8226 leukemia
[39] = test system: SF-268 CNS
[40] = test system: SF-295 CNS
[41] = test system: SF-539 CNS
[42] = test system: SK-MEL-2 melanoma
[43] = test system: SK-MEL-28 melanoma
[44] = test system: SK-MEL-5 melanoma
[45] = test system: SK-OV-3 ovarian
[46] = test system: SN12C renal
[47] = test system: SNB-19 CNS
[48] = test system: SNB-75 CNS
[49] = test system: SR leukemia
[50] = test system: SW-620 colon
[51] = test system: T-47D breast
[52] = test system: TK-10 renal
[53] = test system: UACC-257 melanoma
[54] = test system: UACC-62 melanoma
[55] = test system: UO-31 renal
[56] = test system: EKVX NSCLC
[57] = test system: RXF 393 renal
[58] = test system: U251 CNS

SMILES: CCOC(=O)c1cnc2ccc(Cl)cc2c1NCCCN(C)C
- GI50 [1]: 43 µM
- TGI [1]: > 100 µM
- GI50 [2]: 15.6 µM
- TGI [2]: 37.8 µM
- GI50 [3]: 21.2 µM
- TGI [3]: 67.7 µM
- GI50 [4]: 9.85 µM
- TGI [4]: > 100 µM
- GI50 [5]: 27.8 µM
- TGI [5]: > 100 µM
- GI50 [6]: 23.8 µM
- TGI [6]: 96.5 µM
- GI50 [7]: 22.2 µM
- TGI [7]: > 100 µM
- GI50 [8]: 10.5 µM
- TGI [8]: 24.6 µM
- GI50 [9]: 25.5 µM
- TGI [9]: 76.3 µM
- GI50 [10]: 38.4 µM
- TGI [10]: > 100 µM
- GI50 [11]: 10.2 µM
- TGI [11]: > 100 µM
- GI50 [12]: 25.2 µM
- TGI [12]: > 100 µM
- GI50 [13]: 19.4 µM
- TGI [13]: 50.8 µM
- GI50 [14]: 23 µM
- TGI [14]: 94.8 µM
- GI50 [15]: 20.3 µM
- TGI [15]: 98.4 µM
- GI50 [16]: 29.5 µM
- TGI [16]: > 100 µM
- GI50 [17]: 14.1 µM
- TGI [17]: 52.6 µM
- GI50 [18]: 35 µM
- TGI [18]: > 100 µM
- GI50 [19]: 18.1 µM
- TGI [19]: > 100 µM
- GI50 [20]: 25.8 µM
- TGI [20]: > 100 µM
- GI50 [21]: 14.1 µM
- TGI [21]: 34.1 µM
- GI50 [22]: 17.8 µM
- TGI [22]: 33 µM
- GI50 [23]: 19.1 µM
- TGI [23]: 38.7 µM
- GI50 [24]: 19.4 µM
- TGI [24]: 75.6 µM
- GI50 [25]: 19.5 µM
- TGI [25]: 86.4 µM
- GI50 [26]: 17.9 µM
- TGI [26]: 43.5 µM
- GI50 [27]: 16.3 µM
- TGI [27]: 63.5 µM
- GI50 [28]: 19.9 µM
- TGI [28]: 92.2 µM
- GI50 [29]: 32.7 µM
- TGI [29]: > 100 µM
- GI50 [30]: 22.2 µM
- TGI [30]: 82.7 µM
- GI50 [31]: 16.2 µM
- TGI [31]: 39.4 µM
- GI50 [32]: 25 µM
- TGI [32]: > 100 µM
- GI50 [33]: 28.1 µM
- TGI [33]: 97.7 µM
- GI50 [34]: 23.6 µM
- TGI [34]: > 100 µM
- GI50 [35]: 22.2 µM
- TGI [35]: > 100 µM
- GI50 [36]: 11.6 µM
- TGI [36]: 47 µM
- GI50 [37]: 27.3 µM
- TGI [37]: > 100 µM
- GI50 [38]: 20.7 µM
- TGI [38]: 54.9 µM
- GI50 [39]: 19.9 µM
- TGI [39]: 94 µM
- GI50 [40]: 22.9 µM
- TGI [40]: > 100 µM
- GI50 [41]: 17.4 µM
- TGI [41]: 41.5 µM
- GI50 [42]: 29.1 µM
- TGI [42]: 62.6 µM
- GI50 [43]: 22.9 µM
- TGI [43]: 56.3 µM
- GI50 [44]: 16 µM
- TGI [44]: 30.4 µM
- GI50 [45]: 34.9 µM
- TGI [45]: > 100 µM
- GI50 [46]: 20.5 µM
- TGI [46]: > 100 µM
- GI50 [47]: 51.1 µM
- TGI [47]: > 100 µM
- GI50 [48]: 0.684 µM
- TGI [48]: 77.2 µM
- GI50 [49]: 6.42 µM
- TGI [49]: 70.4 µM
- GI50 [50]: 13.4 µM
- TGI [50]: 74.6 µM
- GI50 [51]: 41.5 µM
- TGI [51]: > 100 µM
- GI50 [52]: 27.5 µM
- TGI [52]: > 100 µM
- GI50 [53]: 17.3 µM
- TGI [53]: 34.9 µM
- GI50 [54]: 16.4 µM
- TGI [54]: 32.8 µM
- GI50 [55]: 16.3 µM
- TGI [55]: 57 µM

SMILES: C#Cc1cccc(NC(=O)Nc2ccccc2NC(=O)CCl)c1
- GI50 [1]: 29.7 µM
- TGI [1]: > 82.5 µM
- GI50 [3]: 25.4 µM
- TGI [3]: > 82.5 µM
- GI50 [4]: 14.5 µM
- TGI [4]: 30.6 µM
- GI50 [5]: 20 µM
- TGI [5]: 65.5 µM
- GI50 [6]: 15.1 µM
- TGI [6]: 33.8 µM
- GI50 [7]: 20.8 µM
- TGI [7]: > 82.5 µM
- GI50 [8]: 29 µM
- TGI [8]: > 82.5 µM
- GI50 [9]: 28.9 µM
- TGI [9]: > 82.5 µM
- GI50 [56]: 19.3 µM
- TGI [56]: 66.2 µM
- GI50 [10]: 15.3 µM
- TGI [10]: 29.8 µM
- GI50 [11]: 24.5 µM
- TGI [11]: > 82.5 µM
- GI50 [12]: 15.1 µM
- TGI [12]: 41.6 µM
- GI50 [13]: 25.2 µM
- TGI [13]: > 82.5 µM
- GI50 [14]: 25.9 µM
- TGI [14]: > 82.5 µM
- GI50 [15]: 14.8 µM
- TGI [15]: 44 µM
- GI50 [16]: 17.1 µM
- TGI [16]: 56.1 µM
- GI50 [17]: 27.6 µM
- TGI [17]: > 82.5 µM
- GI50 [18]: 13.6 µM
- TGI [18]: 28 µM
- GI50 [19]: 22.8 µM
- TGI [19]: > 82.5 µM
- GI50 [20]: 14.2 µM
- TGI [20]: 26.5 µM
- GI50 [21]: 13.3 µM
- TGI [21]: 25.6 µM
- GI50 [22]: 27.8 µM
- TGI [22]: > 82.5 µM
- GI50 [23]: 19.5 µM
- TGI [23]: 56.7 µM
- GI50 [24]: 16.6 µM
- TGI [24]: > 82.5 µM
- GI50 [25]: 16.6 µM
- TGI [25]: 34.6 µM
- GI50 [26]: 15 µM
- TGI [26]: 31.5 µM
- GI50 [27]: 25.6 µM
- TGI [27]: > 82.5 µM
- GI50 [28]: 16 µM
- TGI [28]: 34.1 µM
- GI50 [29]: 16.9 µM
- TGI [29]: 48.5 µM
- GI50 [30]: 16.5 µM
- TGI [30]: 33.9 µM
- GI50 [31]: 20.8 µM
- TGI [31]: 71.5 µM
- GI50 [32]: 23.4 µM
- TGI [32]: 75.5 µM
- GI50 [33]: 13.5 µM
- TGI [33]: 25.5 µM
- GI50 [34]: 16 µM
- TGI [34]: 41 µM
- GI50 [35]: 17.4 µM
- TGI [35]: 41.9 µM
- GI50 [36]: 27.1 µM
- TGI [36]: > 82.5 µM
- GI50 [37]: 21.5 µM
- TGI [37]: 58 µM
- GI50 [38]: 15.2 µM
- TGI [38]: > 82.5 µM
- GI50 [57]: 12.1 µM
- TGI [57]: 26.1 µM
- GI50 [39]: 15.2 µM
- TGI [39]: 43.2 µM
- GI50 [40]: 39.4 µM
- TGI [40]: > 82.5 µM
- GI50 [41]: 13.8 µM
- TGI [41]: 32.4 µM
- GI50 [42]: 22 µM
- TGI [42]: 63.9 µM
- GI50 [43]: 23.7 µM
- TGI [43]: > 82.5 µM
- GI50 [44]: 14.2 µM
- TGI [44]: 26.9 µM
- GI50 [45]: > 82.5 µM
- TGI [45]: > 82.5 µM
- GI50 [46]: 15.1 µM
- TGI [46]: 33.5 µM
- GI50 [47]: 32 µM
- TGI [47]: > 82.5 µM
- GI50 [48]: 9.11 µM
- TGI [48]: 19.8 µM
- GI50 [49]: 23.8 µM
- TGI [49]: > 82.5 µM
- GI50 [50]: 19.3 µM
- TGI [50]: 45.2 µM
- GI50 [51]: 31.1 µM
- TGI [51]: > 82.5 µM
- GI50 [52]: 25.5 µM
- TGI [52]: > 82.5 µM
- GI50 [58]: 15.4 µM
- TGI [58]: 33.1 µM
- GI50 [53]: 26.7 µM
- TGI [53]: > 82.5 µM
- GI50 [54]: 13.8 µM
- TGI [54]: 25.8 µM
- GI50 [55]: 11.1 µM
- TGI [55]: 21.6 µM
